Source: patent publication US20240415756A1, “PEPTIDES AND COMPOSITIONS FOR USE IN COSMETICS” (LIPOTRUE, S.L., priority 2022, published 2024)
Marks after values point to notes of the source that are not given here. Ends that are not written are not given here.

Assays:
[1] = system: voltage-gated sodium channels; experiment: QPatch48 HT electrophysiology of sodium channels in SHSY-5Y cells; format: cell-based, human
Procedure: Using SHSY-5Y cells, electrophysiology was performed to measure ion channel activity using the QPatch48 HT (Sophion, Denmark). The samples tested were: • Negative control: 0.05% (v/v) Bovine Serum Albumin • Positive control: Tetradotoxin (TTX) at a concentration of 3 nM, 10 nM and 30 nM. • SEQ ID NO: 2—NH2 at a concentration of 0.005 mg/mL, 0.01 mg/ml and 0.05 mg/mL. • SEQ ID NO: 3—NH2 at a concentration of 0.005 mg/mL, 0.01 mg/ml and 0.05 mg/mL. • SEQ ID NO: 4—NH2 at a concentration of 0.005 mg/mL, 0.01 mg/ml and 0.05 mg/mL. • SEQ ID NO: 5—NH2 at a concentration of 0.005 mg/ml, 0.01 mg/mL and 0.05 mg/mL. • SEQ ID NO: 6—NH2 at a concentration of 0.005 mg/mL, 0.01 mg/ml and 0.05 mg/mL.
The percentage inhibition for each test dose application period was calculated as a reduction in mean cursor value (peak current) relative to the cursor value measured at the end of the vehicle control (pre-drug) and normalized to the maximum inhibition recorded with the supramaximal addition of TTX.

[2] = system: muscle contraction-related genes; experiment: RT-qPCR expression of muscle contraction-related genes in myocytes; format: cell-based, human; conditions: 0.01 or 0.005 mg/mL, 24 h
Procedure: A stock solution of the peptide was prepared in milli-Q water at 25 mg/mL. This stock was further diluted in the corresponding supplemented medium to obtain the final working concentrations of 0.01 and 0.005 mg/mL. Untreated cells were used as negative control samples.
The relevant genes for which the expression was measured were: SCN1B (Sodium Voltage-Gated Channel Beta Subunit 1), SCN4A (Sodium Voltage-Gated Channel Alpha Subunit 4), SCN3A (Sodium Voltage-Gated Channel Alpha Subunit 3), CALM3 (Calmodulin 3) and RAPSN (Receptor Associated Protein of the Synapse). The primers used for each of the genes were commercially available TaqMan Gene Expression Assay probes. The experiment was performed in vitro in myocytes, two concentrations of the peptide were tested (0.01 mg/ml and 0.005 mg/mL) at 24 h.
Briefly, human skeletal muscle myoblasts were seeded in 12-well plates at a density of 1×10^5 cells/well and maintained at standard culture conditions (SKM-M medium supplemented with 1% Antibiotic/Antimycotic; 37° C., 95% Relative Humidity, 5% CO2) for 48-72 hours until the plated myoblasts reached 80-90% confluence. […]
The obtained data were analyzed using the ΔΔCt method, which provides the target gene expression values as fold changes in the treated sample compared with an untreated basal sample. […]

HDFa cells [3] = experiment: Elastin synthesis in HDFa cells (Fastin Elastin Assay Kit); format: cell-based, human; conditions: 0.01 and 0.015 mg/ml, 48 hours, vs untreated samples
Procedure: A stock solution of the peptide was prepared in water at 25 mg/mL. This stock was further diluted to obtain the final working concentrations of 0.005, 0.01 or 0.015 mg/mL in complete medium (Medium 106 supplemented with 2% LSGS). Untreated cells were used as basal condition.
For this study, HDFa cells were seeded in a 12-well plate at a density of 120,000 cells/well and maintained at standard culture conditions (Medium 106+2% LSGS; 37° C., 95% Relative Humidity, 5% CO2) for 24 hours. Then, fibroblasts were treated for 48 hours with 0.005, 0.01 or 0.015 mg/mL of the peptide mentioned above. After treatment, cells were harvested for elastin quantification with the Fastin Elastin Assay Kit, according to manufacturer instructions. Each condition was performed at least in triplicate (n=3) in three independent experiments (N=3).

[4] = system: Human Fibroblast (SF-TY JCRB); experiment: Hyaluronic acid synthesis in human skin fibroblasts (ELISA); format: cell-based; conditions: 48 hours, first experimental session; for % HA content: negative control = 100
Procedure: In this case the objective of this experiment was to evaluate in vitro the capability of the peptides of the present invention to increase Hyaluronic Acid (HA) synthesis or production in human skin fibroblasts. This evaluation was carried out by determination of HA amount after cell treatment with the peptide (at the different concentrations noted below), for 48 hours.
The experimental groups were: • Untreated cell cultures (negative control). • Cells treated with the peptide of the present invention (at 0.005 mg/mL, 0.01 mg/ml or 0.05 mg/mL).
Treatment was performed for 48 hours. Treatments were performed in triplicate and in two different experimental sessions.
The experimental model used in this study were Human Fibroblast (SF-TY JCRB) cultivated in MEM with fetal bovine serum 10% and 1% antibiotics at 37° C., 5% CO2.
Cells were seeded in 96-well plate at 1×10^4 cells/well and maintained for 24 h at standard culture conditions (37° C., 95% Relative Humidity, 5% CO2) before the treatment was applied.
At the end of the experimental period, the determination of Hyaluronic synthesis was carried out by means of ELISA method. Commercial kits were used for this purpose. The test kit employed a two-site sandwich ELISA to quantitate HA in samples. Briefly, an antibody specific for HA was pre-coated onto a microplate; Standards and samples were pipetted into the wells and any HA present got bound by the immobilized antibody; after removing any unbound substances, a biotin-conjugated antibody specific for HA was added to the wells; after washing, Streptavidin conjugated Horseradish Peroxidase (HRP) was added to the wells; following a wash to remove any unbound avidin-enzyme reagent, a substrate solution was added to the wells and color developed in proportion to the amount of HA bound in the initial step. The color development was stopped, and the intensity of the color was measured. A calibration curve of known concentrations of standard hyaluronic acid was used to perform the determination of the tested samples.
The results are expressed as % of HA content in cell culture medium and cell lysate, which is calculated by stablishing the content of HA in the negative control as 100% and making the appropriate comparison with the rest of the samples.

ECM-related genes = experiment: RT-qPCR expression of ECM-related genes in HDFa cells; format: cell-based, human
Procedure: A stock solution of the peptide was prepared in milli-Q water at 25 mg/mL. This stock was further diluted in the corresponding supplemented medium to obtain the final working concentrations of 0.05, 0.01 and 0.005 mg/mL. Untreated cells were used as negative control samples.
The relevant genes for which the expression was measured were: MMP1 (matrix metallopeptidase 1), HYAL1 (hyaluronidase 1), TIMP2 (TIMP metallopeptidase inhibitor 2), HAS1 (hyaluronan synthase 1), FBLN5 (fibulin 5), LOXL1 (lysyl oxidase like 1), COL4A1 (collagen type IV alpha 1 chain), COL3A1 (collagen type III alpha 1 chain) and COL7A1 (collagen type VII alpha 1 chain). The primers used for each of the genes were commercially available TaqMan Gene Expression Assay probes.
Briefly, HDFa cells were seeded in 12-well plates at a density of 1.5×10^5 cells/well and maintained at standard culture conditions (106 Medium supplemented with 1% LSGS; 37° C., 95% Relative Humidity, 5% CO2) for 24 hours. Then, cells were treated with the above-mentioned peptide at 0.005, 0.01 or 0.05 mg/mL for additional 6 or 24 hours.
Cells were finally lysed, and RNA extraction was performed using Qiagen RNeasy Mini kit following manufacturer's instructions. Purified RNAs were used to generate the corresponding cDNAs by reverse transcription which served as templates for amplification. RT-qPCR was performed with the panel of TaqMan assay probes specified above and 2x gene expression Master Mix using StepOne plus Real-Time PCR instrument. Amplification included 40 cycles of: 15 seconds at 95° C. (denaturation) and 1 minute at 60° C. (Annealing and extension).
The obtained data were analyzed using the ΔΔCt method, which provides the target gene expression values as fold changes in the treated sample compared with an untreated basal sample. Both samples were normalized with the relative expression of a housekeeping gene GAPDH (Glyceraldehyde 3-phosphate dehydrogenase).
The steps for analysis included: • 1. Calculate the average Ct for each condition • 2. Calculate the ΔCT test sample and the ΔCT calibrator sample • 3. Calculate the ΔΔCT: ΔΔCT=ΔCT test sample−ΔCT calibrator sample • 4. Obtain ratio by 2^−ΔΔCT

HDFa cells [5] = experiment: Procollagen I alpha 1 release from HDFa cells (ELISA); format: cell-based, human; conditions: 48 h
Procedure: A stock solution of the peptide was prepared in water at 25 mg/mL. This stock was further diluted to obtain the final working concentrations of 0.01, 0.015 or 0.05 mg/mL in complete medium (Medium 106 supplemented with 2% LSGS). Untreated cells were used as basal condition.
For this study, HDFa cells were seeded in a 24-well plate at a density of 100,000 cells/well and maintained at standard culture conditions (Medium 106 supplemented with 2% LSGS; 37° C., 95% Relative Humidity, 5% CO2) for 24 hours.
After 24 hours, cells were treated for 48 h with the peptide of the present invention mentioned above (0.01, 0.015 and 0.05 mg/mL). After treatments, supernatants were collected and centrifuged in order to eliminate cell debris and were kept at −80° C. until they were used for procollagen I alpha 1 quantification with a human procollagen I alpha 1 DuoSet ELISA kit according to manufacturer instructions. Each condition was performed at least in triplicate (n=3) in three independent experiments (N=3).

human NaV1.3 = target: T1, human NaV1.3 (Homo sapiens, UniProt Q9NY46); experiment: QPatch48 HT electrophysiology of NaV1.3 stably transfected into CHO cells; format: cell-based; conditions: 10 μM peptide, triplicate, vs separate negative control
T1 construct: expressed in transfected cells; host or cells: Chinese Hamster Ovary (CHO) cells, stably transfected
Procedure: Using human NaV1.3 stably transfected into Chinese Hamster Ovary (CHO) cells, electrophysiology was performed to measure ion channel activity using the QPatch48 HT (Sophion, Denmark). Experiments were performed in triplicate and using a concentration of peptide of 10 μM. A separate negative control was performed for each of the peptides. As positive control Amitriptyline was used.

[6] = 24 h, 0.05 mg/ml of the peptide

T1 sequence (Q9NY46 whole entry): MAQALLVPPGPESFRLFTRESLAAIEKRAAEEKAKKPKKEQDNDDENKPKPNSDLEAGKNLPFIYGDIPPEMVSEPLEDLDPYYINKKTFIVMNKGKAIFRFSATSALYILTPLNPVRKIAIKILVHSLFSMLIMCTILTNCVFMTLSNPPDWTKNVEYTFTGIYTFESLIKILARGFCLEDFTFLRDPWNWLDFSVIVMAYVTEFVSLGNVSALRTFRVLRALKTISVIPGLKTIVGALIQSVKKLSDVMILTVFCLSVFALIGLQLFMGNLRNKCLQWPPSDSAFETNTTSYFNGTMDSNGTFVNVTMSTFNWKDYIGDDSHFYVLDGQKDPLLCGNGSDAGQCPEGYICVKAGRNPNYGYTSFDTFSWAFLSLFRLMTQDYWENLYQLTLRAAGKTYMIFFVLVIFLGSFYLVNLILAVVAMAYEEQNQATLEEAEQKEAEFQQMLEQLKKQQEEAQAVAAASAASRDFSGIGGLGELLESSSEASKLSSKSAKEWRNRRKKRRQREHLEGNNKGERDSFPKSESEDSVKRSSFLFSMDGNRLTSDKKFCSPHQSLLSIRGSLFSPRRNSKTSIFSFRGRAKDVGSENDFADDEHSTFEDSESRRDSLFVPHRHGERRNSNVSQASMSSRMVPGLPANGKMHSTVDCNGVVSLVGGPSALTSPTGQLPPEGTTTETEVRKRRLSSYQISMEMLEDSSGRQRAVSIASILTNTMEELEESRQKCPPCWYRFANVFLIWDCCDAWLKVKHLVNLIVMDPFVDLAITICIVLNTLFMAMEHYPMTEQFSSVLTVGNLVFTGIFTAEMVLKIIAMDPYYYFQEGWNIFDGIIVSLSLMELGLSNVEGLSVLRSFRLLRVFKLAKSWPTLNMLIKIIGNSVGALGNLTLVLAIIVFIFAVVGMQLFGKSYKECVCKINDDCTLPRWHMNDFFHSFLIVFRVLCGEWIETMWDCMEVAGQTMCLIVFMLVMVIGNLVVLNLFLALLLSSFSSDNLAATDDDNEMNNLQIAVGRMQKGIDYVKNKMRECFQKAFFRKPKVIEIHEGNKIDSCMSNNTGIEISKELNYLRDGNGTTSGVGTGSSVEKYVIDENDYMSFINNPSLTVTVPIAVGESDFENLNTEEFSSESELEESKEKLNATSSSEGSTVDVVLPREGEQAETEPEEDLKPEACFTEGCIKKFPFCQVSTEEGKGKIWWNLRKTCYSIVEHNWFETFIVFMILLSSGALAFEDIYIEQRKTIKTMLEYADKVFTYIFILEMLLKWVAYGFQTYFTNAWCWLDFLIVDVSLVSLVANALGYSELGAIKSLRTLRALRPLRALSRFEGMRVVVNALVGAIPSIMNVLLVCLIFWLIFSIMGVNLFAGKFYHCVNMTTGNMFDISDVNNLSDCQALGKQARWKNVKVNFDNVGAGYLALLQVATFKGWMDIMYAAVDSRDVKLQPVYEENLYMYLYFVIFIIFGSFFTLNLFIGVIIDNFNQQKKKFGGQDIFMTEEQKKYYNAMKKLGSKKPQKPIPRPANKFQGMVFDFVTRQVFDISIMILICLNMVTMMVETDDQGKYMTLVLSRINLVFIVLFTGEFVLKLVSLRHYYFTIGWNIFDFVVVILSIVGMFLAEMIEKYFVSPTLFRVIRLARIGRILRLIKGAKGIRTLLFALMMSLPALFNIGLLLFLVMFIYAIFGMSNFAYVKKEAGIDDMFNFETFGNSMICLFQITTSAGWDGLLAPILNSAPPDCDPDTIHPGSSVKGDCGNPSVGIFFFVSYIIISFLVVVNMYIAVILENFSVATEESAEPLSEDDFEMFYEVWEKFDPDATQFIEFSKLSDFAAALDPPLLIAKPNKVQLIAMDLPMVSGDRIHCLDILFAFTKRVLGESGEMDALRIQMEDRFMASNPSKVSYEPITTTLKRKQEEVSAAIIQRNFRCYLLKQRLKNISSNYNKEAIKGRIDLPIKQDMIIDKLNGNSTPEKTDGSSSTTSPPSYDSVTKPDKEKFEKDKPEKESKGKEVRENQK

Compound: NC1=N[C@H](O)[C@H]2[C@H]3O[C@]4(O)O[C@@H]([C@@H](O)[C@@]2(N1)[C@@H]4O)[C@]3(O)CO [TTX, tetrodotoxin, reference compound]
- blocking effect on sodium channels [1]: full blocking effect

Compound: Ile-Glu-Pro-Tyr-Tyr-Val-NH2 (IEPYYV-NH2) [SEQ ID NO: 5—NH2]
- ranking of sodium channel inhibition among tested peptides at the lower concentration ([1]; 0.005 mg/mL, SHSY-5Y cells): performed the best

Compound: KDRVY-NH2 [SEQ ID NO: 4—NH2, Lys-Asp-Arg-Val-Tyr-NH2]
- expression of sodium channels and muscle contraction-related genes (SCN1B, SCN4A, SCN3A, CALM3, RAPSN) [2]: downregulate
- elastin levels (HDFa cells [3]): increase of elastin levels
- ranking of sodium channel inhibition among tested peptides at the two higher concentrations ([1]; 0.01 and 0.05 mg/mL, SHSY-5Y cells): best results
- % Variation with regard to negative control ([4]; 0.005 mg/mL): 7.57** %
- % HA content ([4]; 0.005 mg/mL): 107.57** %
- % Variation with regard to negative control ([4]; 0.01 mg/mL): 21.75*** %
- % HA content ([4]; 0.01 mg/mL): 121.75*** %
- % Variation with regard to negative control ([4]; 0.05 mg/mL): 39.21*** %
- % HA content ([4]; 0.05 mg/mL): 139.21*** %
- HYAL1 gene expression (ECM-related genes; 6 h, 0.005 mg/ml of the peptide): downregulation
- HAS1 gene expression (ECM-related genes; 6 h, 0.05 mg/ml of the peptide): upregulation
- COL3A1 gene expression (ECM-related genes; 24 h, 0.01 mg/m of the peptide): upregulation
- COL4A1 gene expression (ECM-related genes; 24 h, 0.01 mg/m of the peptide): upregulation
- MMP1 gene expression (ECM-related genes; 24 h, 0.01 mg/m of the peptide): downregulation
- COL7A1 gene expression (ECM-related genes; [6]): upregulation
- FBLN5 gene expression (ECM-related genes; [6]): upregulation
- LOXL1 gene expression (ECM-related genes; [6]): upregulation
- TIMP2 gene expression (ECM-related genes; [6]): upregulation
- increase of procollagen I alpha 1 protein release (HDFa cells [5]; HDFa, 0.05 mg/mL (highest tested concentration)): 53%
- procollagen I alpha 1 protein release (HDFa cells [5]; HDFa, 0.01, 0.015 and 0.05 mg/mL, vs untreated cells): increased at all tested concentrations, in a dose-dependent manner

Compound: Lys-Arg-Arg-Tyr-Tyr-Cys-NH2 (KRRYYC-NH2) [SEQ ID NO: 2—NH2]
- inhibition of NaV1.3 inward currents (human NaV1.3): increased and statistically significant effect

Compound: Lys-His-Arg-Ser-Tyr-NH2 (KHRSY-NH2) [SEQ ID NO: 3—NH2]
- inhibition of NaV1.3 inward currents (human NaV1.3): increased and statistically significant effect
